Reference: ChEMBL document CHEMBL4312022, “Design, synthesis, and biological evaluation of ligustrazine - betulin amino-acid/dipeptide derivatives as anti-tumor agents” (Eur J Med Chem, 2020)

How the values were obtained:
HT-29 = assay: Antiproliferative activity against human HT-29 cells assessed as reduction in cell viability after 72 hrs by MTT assay; type: functional, cell-based; conditions: HT-29, 72 h
HepG2 = assay: Antiproliferative activity against human HepG2 cells assessed as reduction in cell viability after 72 hrs by MTT assay; type: functional, cell-based; conditions: HepG2, 72 h
BGC-823 = assay: Antiproliferative activity against human BGC823 cells assessed as reduction in cell viability after 72 hrs by MTT assay; type: functional, cell-based; conditions: BGC-823, 72 h
MDCK = assay: Cytotoxicity against MDCK cells assessed as reduction in cell viability after 72 hrs by MTT assay; type: cell-based; conditions: Canis lupus familiaris
HeLa = assay: Antiproliferative activity against human HeLa cells assessed as reduction in cell viability after 72 hrs by MTT assay; type: functional, cell-based

Row | SMILES | IC50 (HT-29) [µM] | IC50 (HepG2) [µM] | IC50 (BGC-823) [µM] | IC50 (MDCK) [µM] | IC50 (HeLa) [µM]
1 | C=C(C)[C@@H]1CC[C@]2(COC(=O)c3nc(C)c(C)nc3C)CC[C@]3(C)[C@H](CC[C@@H]4[C@@]5(C)CC[C@H](OC(=O)[C@@H]6CCCN6C(=O)CCNC(C)=O)C(C)(C)[C@@H]5CC[C@]43C)[C@@H]12 | > 20 | > 20 | > 20 | > 20 | 10.4
2 | C=C(C)[C@@H]1CC[C@]2(COC(=O)c3nc(C)c(C)nc3C)CC[C@]3(C)[C@H](CC[C@@H]4[C@@]5(C)CC[C@H](OC(=O)CNC(=O)[C@@H]6CCCN6C(C)=O)C(C)(C)[C@@H]5CC[C@]43C)[C@@H]12 | 12.3 | > 20 | 8.15 | 19.8 | 10.1
3 | C=C(C)[C@@H]1CC[C@]2(COC(=O)c3nc(C)c(C)nc3C)CC[C@]3(C)[C@H](CC[C@@H]4[C@@]5(C)CC[C@H](O)C(C)(C)[C@@H]5CC[C@]43C)[C@@H]12 | 16.3 | 13.6 | 15 | > 20 | 18.5
4 | C=C(C)[C@@H]1CC[C@]2(COC(=O)c3nc(C)c(C)nc3C)CC[C@]3(C)[C@H](CC[C@@H]4[C@@]5(C)CC[C@H](OC(=O)[C@@H]6CCCN6C(=O)[C@@H]6CCCN6C(C)=O)C(C)(C)[C@@H]5CC[C@]43C)[C@@H]12 | > 20 | > 20 | > 20 | > 20 | 11.1
5 | C=C(C)[C@@H]1CC[C@]2(COC(=O)c3nc(C)c(C)nc3C)CC[C@]3(C)[C@H](CC[C@@H]4[C@@]5(C)CC[C@H](OC(=O)[C@@H]6CCCN6C(=O)CNC(C)=O)C(C)(C)[C@@H]5CC[C@]43C)[C@@H]12 | 14.7 | 18.4 | 18.9 | 18.9 | 17.9
6 | C=C(C)[C@@H]1CC[C@]2(COC(=O)c3nc(C)c(C)nc3C)CC[C@]3(C)[C@H](CC[C@@H]4[C@@]5(C)CC[C@H](OC(=O)[C@H](C)N)C(C)(C)[C@@H]5CC[C@]43C)[C@@H]12 | 9.29 | 10.1 | 7.83 | 18.5 | 9.22
7 | C=C(C)[C@@H]1CC[C@]2(COC(=O)c3nc(C)c(C)nc3C)CC[C@]3(C)[C@H](CC[C@@H]4[C@@]5(C)CC[C@H](OC(=O)[C@@H](N)C(C)C)C(C)(C)[C@@H]5CC[C@]43C)[C@@H]12 | > 20 | > 20 | > 20 | > 20 | > 20
8 | C=C(C)[C@@H]1CC[C@]2(COC(=O)c3nc(C)c(C)nc3C)CC[C@]3(C)[C@H](CC[C@@H]4[C@@]5(C)CC[C@H](OC(=O)[C@@H](N)CC(C)C)C(C)(C)[C@@H]5CC[C@]43C)[C@@H]12 | > 20 | > 20 | > 20 | > 20 | > 20
9 | C=C(C)[C@@H]1CC[C@]2(COC(=O)c3nc(C)c(C)nc3C)CC[C@]3(C)[C@H](CC[C@@H]4[C@@]5(C)CC[C@H](OC(=O)[C@@H](N)[C@@H](C)CC)C(C)(C)[C@@H]5CC[C@]43C)[C@@H]12 | 16.6 | > 20 | > 20 | > 20 | > 20
10 | C=C(C)[C@@H]1CC[C@]2(CO)CC[C@]3(C)[C@H](CC[C@@H]4[C@@]5(C)CC[C@H](O)C(C)(C)[C@@H]5CC[C@]43C)[C@@H]12 [BETULIN] | > 20 | > 20 | > 20 | > 20 | 12.2
11 | C=C(C)[C@@H]1CC[C@]2(COC(=O)c3nc(C)c(C)nc3C)CC[C@]3(C)[C@H](CC[C@@H]4[C@@]5(C)CC[C@H](OC(=O)CN(C)C(=O)CCNC(C)=O)C(C)(C)[C@@H]5CC[C@]43C)[C@@H]12 | 12.5 | 11 | 6.94 | 18.6 | 4.13
12 | C=C(C)[C@@H]1CC[C@]2(COC(=O)c3nc(C)c(C)nc3C)CC[C@]3(C)[C@H](CC[C@@H]4[C@@]5(C)CC[C@H](OC(=O)CNC(=O)CNC(C)=O)C(C)(C)[C@@H]5CC[C@]43C)[C@@H]12 | 11.2 | > 20 | 7.85 | 14.5 | > 20
13 | C=C(C)[C@@H]1CC[C@]2(COC(=O)c3nc(C)c(C)nc3C)CC[C@]3(C)[C@H](CC[C@@H]4[C@@]5(C)CC[C@H](OC(=O)[C@@H]6CCC(=O)N6)C(C)(C)[C@@H]5CC[C@]43C)[C@@H]12 | 15.3 | 16.5 | 8.62 | 16.7 | 19.4
14 | C=C(C)[C@@H]1CC[C@]2(COC(=O)c3nc(C)c(C)nc3C)CC[C@]3(C)[C@H](CC[C@@H]4[C@@]5(C)CC[C@H](OC(=O)CN(C)C(=O)CNC(C)=O)C(C)(C)[C@@H]5CC[C@]43C)[C@@H]12 | > 20 | > 20 | 10.3 | > 20 | 7.96
15 | C=C(C)[C@@H]1CC[C@]2(COC(=O)c3nc(C)c(C)nc3C)CC[C@]3(C)[C@H](CC[C@@H]4[C@@]5(C)CC[C@H](OC(=O)[C@@H](N)Cc6ccccc6)C(C)(C)[C@@H]5CC[C@]43C)[C@@H]12 | > 20 | > 20 | > 20 | > 20 | > 20
16 | C=C(C)[C@@H]1CC[C@]2(COC(=O)c3nc(C)c(C)nc3C)CC[C@]3(C)[C@H](CC[C@@H]4[C@@]5(C)CC[C@H](OC(=O)CN(C)C(=O)[C@@H]6CCCN6C(C)=O)C(C)(C)[C@@H]5CC[C@]43C)[C@@H]12 | 9.71 | > 20 | 7.93 | > 20 | 10.5
17 | C=C(C)[C@@H]1CC[C@]2(COC(=O)c3nc(C)c(C)nc3C)CC[C@]3(C)[C@H](CC[C@@H]4[C@@]5(C)CC[C@H](OC(=O)CNC)C(C)(C)[C@@H]5CC[C@]43C)[C@@H]12 | 7.92 | 5.93 | 8.23 | 14.6 | 7.88
18 | C=C(C)[C@@H]1CC[C@]2(COC(=O)c3nc(C)c(C)nc3C)CC[C@]3(C)[C@H](CC[C@@H]4[C@@]5(C)CC[C@H](OC(=O)CNC(=O)CCNC(C)=O)C(C)(C)[C@@H]5CC[C@]43C)[C@@H]12 | > 20 | > 20 | 7.62 | 15.8 | 6.72
19 | C=C(C)[C@@H]1CC[C@]2(COC(=O)c3nc(C)c(C)nc3C)CC[C@]3(C)[C@H](CC[C@@H]4[C@@]5(C)CC[C@H](OC(=O)[C@@H]6CCCN6)C(C)(C)[C@@H]5CC[C@]43C)[C@@H]12 | 15 | 19.6 | 10.4 | 17.6 | 17.2
